Target: T1, C-TDP-43 oligomeric intermediates (Homo sapiens, UniProt Q13148)
T1 construct: expressed in transfected cells; host or cells: Neuro-2a (mouse neuroblastoma)
Assay: FLIM-FRET of C-TDP-43 oligomeric intermediates in Neuro-2a cells
Type: cell-based, mouse
Protocol: To study the EFRET of oligomeric intermediates of C-TDP-43, we seeded 2×10^6 cells/dish of Neuro-2a cells in sterile 35 mm μ-Dish and transfected with either both 0.55 μg eGFP-C-TDP-43 and 0.55 μg mCherry-C-TDP-43 or both 0.55 μg eGFP and 0.55 μg mCherry (negative control) plasmids. After 2 hours, compound I-1b was delivered to the experimental group. After 48 h incubation, the Neuro-2a cells were fixed (4% paraformaldehyde in 15 min and stored in 1×PBS buffer) and further analyzed by Q2 FastFLIM system (ISS Inc.). The Neruo2a cells were monitored and captured under oil-immersion objective observation (Nikon Plan Apo 100×/numerical aperture (NA) 1.4). […]
The fitting method of the FastFLIM images were described in the “Experimental Section” of a previous publication (He, R. Y et al. Adv. Sci. 2020, 7 (2), 1901165). […] The FRET efficiency of oligomeric intermediates was calculated by the formula: […]
wherein τD is donor lifetime of eGFP only, and τDA denotes lifetime of intermediates. Then, the EFRET of each pixel to form the FRET maps as well as the histogram of EFRET (FIG. 12B) were calculated by ISS Software VistaVision. […]
To assess C-TDP-43 oligomeric intermediates, fluorescence lifetime imaging microscopy (FLIM) was employed to measure the efficiency of Forster resonance energy transfer (EFRET) of the fluorescence protein-tagged C-TDP-43 in the presence or absence of compound I-1b. […]

T1 sequence (Q13148 208-414 limits assumed): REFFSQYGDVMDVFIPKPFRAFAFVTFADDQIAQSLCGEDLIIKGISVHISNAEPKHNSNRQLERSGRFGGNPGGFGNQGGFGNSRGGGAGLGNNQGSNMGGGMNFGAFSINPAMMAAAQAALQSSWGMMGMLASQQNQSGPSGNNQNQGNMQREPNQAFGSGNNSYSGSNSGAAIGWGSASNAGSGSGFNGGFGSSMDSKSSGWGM
T1 sequence (Q13148 208-414 limits assumed): as above

averaged EFRET value (Neuro-2a cells expressing 2FP—C-TDP-43, 48 h, 28.12% without compound, 3.36% negative control): 22.4%
EFRET of the C-TDP-43 oligomeric intermediates (statistically, ISS VistaVision) (Neuro-2a cells, decreased from 48.92% without compound): 40.11%
SMILES: CN(C)c1ccc(-c2nc3ccc(OCCOCCOCCNc4cccc5c4C(=O)N(C4CCC(=O)NC4=O)C5=O)cc3s2)cc1 (centres unmarked) [I-1b, 4-((2-(2-(2-((2-(4-(dimethylamino)phenyl)benzo[d]thiazol-6-yl)oxy)ethoxy)ethoxy)ethyl)amino)-2-(2,6-dioxopiperidin-3-yl)isoindoline-1,3-dione]
